Laboratory results taken from US8192962B2, “Processes for detecting toxic substances” (Daikin Industries, Ltd., priority 2001, dated 2012).

Tested on: Mitochondria-located protein genes
Experiment: DNA chip mRNA expression in yeast, mitochondria-located protein genes (Table 2)
Format: cell-based, Saccharomyces cerevisiae S288C
Details: cells incubated two hours with the chemical substance
Protocol: Yeast (Saccharomyces cerevisiae S288C (α SUC2mal mel gap2 CUP1)) were incubated at 25° C. on YPD medium (yeast extract 1%, polypepton 2%, glucose 2%). One of toxic chemical substances was added to the cells at logarithmic growth phase, and the cells were further incubated for two hours. Cells were cultured without any chemical substance in the same condition, and were used as control. Concentrations of the chemical substances were defined to inhibit the growth of the yeast but not lead to death.
After completion of the incubation, the culture was centrifuged to collect the cells. To the cells, sodium acetate buffer (50 mM sodium acetate, 10 mM EDTA, 1% SDS) was added, and the mixture was shaken at 65° C. for five minutes, followed by returning to room temperature, and obtaining the supernatant, of which the procedures were repeated two times. To the supernatant, ½ amount of a solution of phenol/chloroform was added, and the mixture was centrifuged to give a supernatant, which was added with an equal amount of chloroform, and the mixture was centrifuged to give a supernatant. To the supernatant, an equal amount of isopropanol containing 0.3 M sodium acetate was added, and the mixture was allowed to stand at room temperature for 30 minutes, after which the mixture was centrifuged to give a sediment of the whole RNAs. Seventy % ethanol was added to the sediment, and the mixture was again centrifuged to give a sediment, which was then dried and dissolved in water. mRNA was isolated from the whole RNAs as followings. In view of the fact that a poly A chain is attached to the 3′ terminus of mRNA, a polynucleotide having a poly T structure which was immobilized on the surface of latex beads was used to trap the mRNA, and then the mRNA was washed and eluted with spine column (Oligotex-dT30<Super>mRNA Purification Kit, Takara). Reverse transcription of the mRNA was conducted with a reverse transcriptase (Super Script II Reverse Transcriptase; catalogue No. 18064-014, GibcoBRL) using fluorescence-labeled nucleotides to give cDNAs that were introduced with Cy3-dUTP or Cy5-dUTP during the reverse transcription.
The labeled cDNAs were dissolved in TE buffer (10mM Tris-HCl/1 mM EDTA, pH8.0), and the solution was dropped on the DNA chip containing the whole genes of yeast (DNA Chip Research Inc. Japan) so that the cDNAs were hybridized on the DNA chip at 65° C. for over 12 hours. The fluoresces intensity of the DNA chip was read with a scanner, and the ratio relative to the fluorescence intensity resulting from the absence of chemical substance was estimated as the following, which is shown in Tables 1 to 9: […]

Q: How did the “The level of expressed mRNA in the presence of chemical substance/The level of expressed mRNA in the absence of chemical substance” value (yeast gene YJR121W) turn out when Oc1cc(Cl)c(Cl)cc1Cl [(6), 2,4,5-trichlorophenol] was run?
A: 1.5

Q: What about the “The level of expressed mRNA in the presence of chemical substance/The level of expressed mRNA in the absence of chemical substance” value (yeast gene YKL003C) of the same compound?
A: 1.0

Q: And the “The level of expressed mRNA in the presence of chemical substance/The level of expressed mRNA in the absence of chemical substance” value (yeast gene YKL016C)?
A: 0.8

Q: What about the “The level of expressed mRNA in the presence of chemical substance/The level of expressed mRNA in the absence of chemical substance” value (yeast gene YKL141W) of the same compound?
A: 1.2

Q: What about the “The level of expressed mRNA in the presence of chemical substance/The level of expressed mRNA in the absence of chemical substance” value (yeast gene YKL142W) of the same compound?
A: 3.4

Q: And the “The level of expressed mRNA in the presence of chemical substance/The level of expressed mRNA in the absence of chemical substance” value (yeast gene YKL148C)?
A: 0.5

Q: And the “The level of expressed mRNA in the presence of chemical substance/The level of expressed mRNA in the absence of chemical substance” value (yeast gene YKL170W)?
A: 1.5

Q: And the “The level of expressed mRNA in the presence of chemical substance/The level of expressed mRNA in the absence of chemical substance” value (yeast gene YKL194C)?
A: 1.4

Q: What about the “The level of expressed mRNA in the presence of chemical substance/The level of expressed mRNA in the absence of chemical substance” value (yeast gene YKR066C) of the same compound?
A: 0.9

Q: What about the “The level of expressed mRNA in the presence of chemical substance/The level of expressed mRNA in the absence of chemical substance” value (yeast gene YLL041C) of the same compound?
A: 1.2

Q: And the “The level of expressed mRNA in the presence of chemical substance/The level of expressed mRNA in the absence of chemical substance” value (yeast gene YLR038C)?
A: 1.2

Q: What about the “The level of expressed mRNA in the presence of chemical substance/The level of expressed mRNA in the absence of chemical substance” value (yeast gene YLR259C) of the same compound?
A: 0.9

Q: What about the “The level of expressed mRNA in the presence of chemical substance/The level of expressed mRNA in the absence of chemical substance” value (yeast gene YLR295C) of the same compound?
A: 1.1

Q: What about the “The level of expressed mRNA in the presence of chemical substance/The level of expressed mRNA in the absence of chemical substance” value (yeast gene YLR304C) of the same compound?
A: 1.9

Q: And the “The level of expressed mRNA in the presence of chemical substance/The level of expressed mRNA in the absence of chemical substance” value (yeast gene YLR348C)?
A: 1.9

Q: And the “The level of expressed mRNA in the presence of chemical substance/The level of expressed mRNA in the absence of chemical substance” value (yeast gene YLR395C)?
A: 0.4

Q: What about the “The level of expressed mRNA in the presence of chemical substance/The level of expressed mRNA in the absence of chemical substance” value (yeast gene YML054C) of the same compound?
A: 1.8

Q: And the “The level of expressed mRNA in the presence of chemical substance/The level of expressed mRNA in the absence of chemical substance” value (yeast gene YML120C)?
A: 0.6

Q: And the “The level of expressed mRNA in the presence of chemical substance/The level of expressed mRNA in the absence of chemical substance” value (yeast gene YML129C)?
A: 1.7

Q: What about the “The level of expressed mRNA in the presence of chemical substance/The level of expressed mRNA in the absence of chemical substance” value (yeast gene YMR023C) of the same compound?
A: 1.1

Q: And the “The level of expressed mRNA in the presence of chemical substance/The level of expressed mRNA in the absence of chemical substance” value (yeast gene YMR035W)?
A: 1.5

Q: What about the “The level of expressed mRNA in the presence of chemical substance/The level of expressed mRNA in the absence of chemical substance” value (yeast gene YMR083W) of the same compound?
A: 1.8

Q: And the “The level of expressed mRNA in the presence of chemical substance/The level of expressed mRNA in the absence of chemical substance” value (yeast gene YMR089C)?
A: 1.2

Q: And the “The level of expressed mRNA in the presence of chemical substance/The level of expressed mRNA in the absence of chemical substance” value (yeast gene YMR152W)?
A: 7.5

Q: And the “The level of expressed mRNA in the presence of chemical substance/The level of expressed mRNA in the absence of chemical substance” value (yeast gene YMR203W)?
A: 1.1

Q: And the “The level of expressed mRNA in the presence of chemical substance/The level of expressed mRNA in the absence of chemical substance” value (yeast gene YMR267W)?
A: 1.4

Q: And the “The level of expressed mRNA in the presence of chemical substance/The level of expressed mRNA in the absence of chemical substance” value (yeast gene YNL055C)?
A: 2.6

Q: What about the “The level of expressed mRNA in the presence of chemical substance/The level of expressed mRNA in the absence of chemical substance” value (yeast gene YNL071W) of the same compound?
A: 1.3

Q: And the “The level of expressed mRNA in the presence of chemical substance/The level of expressed mRNA in the absence of chemical substance” value (yeast gene YNL073W)?
A: 0.5

Q: What about the “The level of expressed mRNA in the presence of chemical substance/The level of expressed mRNA in the absence of chemical substance” value (yeast gene YNL104C) of the same compound?
A: 0.8

Q: And the “The level of expressed mRNA in the presence of chemical substance/The level of expressed mRNA in the absence of chemical substance” value (yeast gene YNL256W)?
A: 0.5

Q: What about the “The level of expressed mRNA in the presence of chemical substance/The level of expressed mRNA in the absence of chemical substance” value (yeast gene YOL096C) of the same compound?
A: 1.3

Q: And the “The level of expressed mRNA in the presence of chemical substance/The level of expressed mRNA in the absence of chemical substance” value (yeast gene YOR020C)?
A: 2.3

Q: What about the “The level of expressed mRNA in the presence of chemical substance/The level of expressed mRNA in the absence of chemical substance” value (yeast gene YOR037W) of the same compound?
A: 1.6

Q: And the “The level of expressed mRNA in the presence of chemical substance/The level of expressed mRNA in the absence of chemical substance” value (yeast gene YOR100C)?
A: 1.2

Q: What about the “The level of expressed mRNA in the presence of chemical substance/The level of expressed mRNA in the absence of chemical substance” value (yeast gene YOR130C) of the same compound?
A: 1.6

Q: What about the “The level of expressed mRNA in the presence of chemical substance/The level of expressed mRNA in the absence of chemical substance” value (yeast gene YOR142W) of the same compound?
A: 1.6

Q: And the “The level of expressed mRNA in the presence of chemical substance/The level of expressed mRNA in the absence of chemical substance” value (yeast gene YOR150W)?
A: 0.9

Q: What about the “The level of expressed mRNA in the presence of chemical substance/The level of expressed mRNA in the absence of chemical substance” value (yeast gene YOR176W) of the same compound?
A: 0.9

Q: What about the “The level of expressed mRNA in the presence of chemical substance/The level of expressed mRNA in the absence of chemical substance” value (yeast gene YOR187W) of the same compound?
A: 1.7

Q: What about the “The level of expressed mRNA in the presence of chemical substance/The level of expressed mRNA in the absence of chemical substance” value (yeast gene YOR316C) of the same compound?
A: 0.9

Q: And the “The level of expressed mRNA in the presence of chemical substance/The level of expressed mRNA in the absence of chemical substance” value (yeast gene YPL040C)?
A: 1.1

Q: And the “The level of expressed mRNA in the presence of chemical substance/The level of expressed mRNA in the absence of chemical substance” value (yeast gene YPL134C)?
A: 1.2

Q: What about the “The level of expressed mRNA in the presence of chemical substance/The level of expressed mRNA in the absence of chemical substance” value (yeast gene YPL135W) of the same compound?
A: 1.3

Q: What about the “The level of expressed mRNA in the presence of chemical substance/The level of expressed mRNA in the absence of chemical substance” value (yeast gene YPL215W) of the same compound?
A: 0.7

Q: And the “The level of expressed mRNA in the presence of chemical substance/The level of expressed mRNA in the absence of chemical substance” value (yeast gene YPL262W)?
A: 1.6

Q: What about the “The level of expressed mRNA in the presence of chemical substance/The level of expressed mRNA in the absence of chemical substance” value (yeast gene YPR024W) of the same compound?
A: 1.0

Q: And the “The level of expressed mRNA in the presence of chemical substance/The level of expressed mRNA in the absence of chemical substance” value (yeast gene YPR037C)?
A: 0.9

Q: What about the “The level of expressed mRNA in the presence of chemical substance/The level of expressed mRNA in the absence of chemical substance” value (yeast gene YPR047W) of the same compound?
A: 1.0

Q: What about the “The level of expressed mRNA in the presence of chemical substance/The level of expressed mRNA in the absence of chemical substance” value (yeast gene YPR134W) of the same compound?
A: 0.6
